Several values for one entry are separate records, joined by “and”; a condition that tells them apart may be missing. Identical values can stand only once. Inconclusive results and toxic doses are left out.
Tested on: L1210 leukemia ip in BDF1 mice, survival T/C
Test: NCI In Vivo Anticancer Drug Screen. Data for tumor model L1210 Leukemia (intraperitoneal) in B6D2F1 (BDF1) mice
Settings: endpoint: mean survival time, higher = longer survival
Method in brief: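 Ratio derived from survival: compound-dosed mice over vehicle-dosed mice, all bearing a transplantable tumor.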

[1] = dose: 100.0 mg/kg/injection, schedule: Q04DX003 (ip), vehicle: Klucel (hydroxypropylcellulose) (HPC)
[2] = dose: 200.0 mg/kg/injection, schedule: Q04DX003 (ip), vehicle: Klucel (hydroxypropylcellulose) (HPC)
[3] = dose: 400.0 mg/kg/injection, schedule: Q04DX003 (ip), vehicle: Klucel (hydroxypropylcellulose) (HPC)
[4] = dose: 100.0 mg/kg/injection, schedule: Q01DX001 (ip), vehicle: saline
[5] = dose: 200.0 mg/kg/injection, schedule: Q01DX001 (ip), vehicle: saline
[6] = dose: 400.0 mg/kg/injection, schedule: Q01DX001 (ip), vehicle: saline
[7] = dose: 100.0 mg/kg/injection, schedule: Q04DX003 (ip), vehicle: saline with Tween-80
[8] = dose: 200.0 mg/kg/injection, schedule: Q04DX003 (ip), vehicle: saline with Tween-80
[9] = dose: 400.0 mg/kg/injection, schedule: Q04DX003 (ip), vehicle: saline with Tween-80
[10] = dose: 100.0 mg/kg/injection, schedule: Q01DX001 (ip), vehicle: Klucel (hydroxypropylcellulose) (HPC)
[11] = dose: 200.0 mg/kg/injection, schedule: Q01DX001 (ip), vehicle: Klucel (hydroxypropylcellulose) (HPC)
[12] = dose: 400.0 mg/kg/injection, schedule: Q01DX001 (ip), vehicle: Klucel (hydroxypropylcellulose) (HPC)
[13] = dose: 50.0 mg/kg/injection, schedule: Q01DX009 (ip), vehicle: saline with Tween-80

Which T/C [1] does the source give for `CC(=O)C(CCS(C)(=O)=O)(CCS(C)(=O)=O)c1ccccc1` here?
The T/C was 112 % of control.

What about the T/C [2] of the same molecule?
The T/C was 108 % of control.

And the T/C [3]?
Its T/C is 100 % of control.

Which results are given for `CCC1(NS(=O)(=O)c2ccc(NC(C)=O)cc2)C(=O)N(C)C(=O)N(C)C1=O`?
T/C [4]: 95 % of control; T/C [5]: 91 % of control; T/C [6]: 91 % of control

How did the T/C (dose: 1.25 mg/kg/injection, schedule: Q01DX001 (ip), vehicle: saline) turn out when `c1ccc2c(c1)cc[n+]1c3ccccc3ccc21` was run?
Its T/C is 97 % of control.

And the T/C (dose: 2.5 mg/kg/injection, schedule: Q01DX001 (ip), vehicle: saline)?
The T/C was 97 % of control.

And the T/C (dose: 5.0 mg/kg/injection, schedule: Q01DX001 (ip), vehicle: saline)?
Its T/C is 103 % of control.

And the T/C (dose: 10.0 mg/kg/injection, schedule: Q01DX001 (ip), vehicle: saline)?
Its T/C is 107 % of control.

For `CCCCCCCC[Se]CCCCCCCC`, which T/C [7] is on record?
Its T/C is 111 % of control.

What about the T/C [8] of the same molecule?
Its T/C is 103 % of control.

What about the T/C [9] of the same molecule?
The T/C was 103 % of control.

How did the T/C [4] turn out when `CC(C)(C)C#CCCl` was run?
Its T/C is 96 % of control.

And the T/C (dose: 100.0 mg/kg/injection, schedule: Q01DX009 (ip), vehicle: saline)?
Its T/C is 116 % of control.

And the T/C [5]?
Its T/C is 105 % of control.

And the T/C (dose: 200.0 mg/kg/injection, schedule: Q01DX009 (ip), vehicle: saline)?
The T/C was 97 % of control.

And the T/C [6]?
The T/C was 94 % of control.

Which results are given for `CCN1c2ccccc2Sc2ccccc21`?
T/C (dose: 50.0 mg/kg/injection, schedule: Q01DX001 (ip), vehicle: carboxymethylcellulose (CMC)): 98 % of control; T/C (dose: 100.0 mg/kg/injection, schedule: Q01DX001 (ip), vehicle: carboxymethylcellulose (CMC)): 98 % of control; T/C [7]: 92 % of control; T/C (dose: 200.0 mg/kg/injection, schedule: Q01DX001 (ip), vehicle: carboxymethylcellulose (CMC)): 102 % of control; T/C [8]: 97 % of control; T/C (dose: 400.0 mg/kg/injection, schedule: Q01DX001 (ip), vehicle: carboxymethylcellulose (CMC)): 98 % of control; T/C [9]: 100 % of control

What does the source list for `COC(=O)c1cc(/C=C/c2ccccc2)ccc1[N+](=O)[O-]`?
T/C (dose: 50.0 mg/kg/injection, schedule: Q04DX003 (ip), vehicle: alcohol): 90 % of control; T/C (dose: 100.0 mg/kg/injection, schedule: Q04DX003 (ip), vehicle: alcohol): 101 % of control; T/C (dose: 200.0 mg/kg/injection, schedule: Q04DX003 (ip), vehicle: alcohol): 104 % of control

For `O=C1CSSCC(=O)NCCN1`, which T/C (dose: 100.0 mg/kg/injection, schedule: Q04DX002 (ip), vehicle: Klucel (hydroxypropylcellulose) (HPC)) is on record?
Its T/C is 93 % of control and 96 % of control.

And the T/C (dose: 200.0 mg/kg/injection, schedule: Q04DX002 (ip), vehicle: Klucel (hydroxypropylcellulose) (HPC))?
Its T/C is 93 % of control and 96 % of control.

And the T/C (dose: 400.0 mg/kg/injection, schedule: Q04DX002 (ip), vehicle: Klucel (hydroxypropylcellulose) (HPC))?
The T/C was 93 % of control and 96 % of control.

For `Nc1[nH]c(=O)ncc1-c1cccc(Cl)c1`, which T/C (dose: 12.5 mg/kg/injection, schedule: Q01DX009 (ip), vehicle: Klucel (hydroxypropylcellulose) (HPC)) is on record?
The T/C was 103 % of control.

And the T/C (dose: 25.0 mg/kg/injection, schedule: Q01DX009 (ip), vehicle: Klucel (hydroxypropylcellulose) (HPC))?
Its T/C is 95 % of control.

What about the T/C (dose: 50.0 mg/kg/injection, schedule: Q01DX009 (ip), vehicle: Klucel (hydroxypropylcellulose) (HPC)) of the same molecule?
Its T/C is 100 % of control and 103 % of control.

With `O=C(Nc1ccc(C2=NCCN2)cc1)c1ccc(C(=O)Nc2ccc(C3=NCCN3)cc2)c([N+](=O)[O-])c1` as the molecule, how does the T/C (dose: 1.0 mg/kg/injection, schedule: Q#A X Z (ip), vehicle: saline) read?
Its T/C is 103 % of control.

What about the T/C (dose: 2.0 mg/kg/injection, schedule: Q01DX Z (ip), vehicle: saline) of the same molecule?
Its T/C is 112 % of control.

And the T/C (dose: 2.5 mg/kg/injection, schedule: Q## X000 (iv), vehicle: other)?
The T/C was 97 % of control.

And the T/C (dose: 3.6 mg/kg/injection, schedule: Q01DX Z (ip), vehicle: methylcellulose (MC))?
Its T/C is 163 % of control.

What about the T/C (dose: 4.0 mg/kg/injection, schedule: Q01DX Z (ip), vehicle: saline) of the same molecule?
The T/C was 116 % of control.

And the T/C (dose: 4.0 mg/kg/injection, schedule: Q#A X Z (ip), vehicle: saline)?
Its T/C is 184 % of control.

And the T/C (dose: 5.0 mg/kg/injection, schedule: Q## X000 (iv), vehicle: other)?
The T/C was 96 % of control.

And the T/C (dose: 5.4 mg/kg/injection, schedule: Q01DX Z (ip), vehicle: methylcellulose (MC))?
The T/C was 195 % of control.

What about the T/C (dose: 6.0 mg/kg/injection, schedule: Q01DX004 (im), vehicle: olive oil, sesame oil, peanut oil) of the same molecule?
The T/C was 97 % of control.

And the T/C (dose: 6.0 mg/kg/injection, schedule: Q03DX Z (ip), vehicle: saline)?
Its T/C is 115 % of control.

And the T/C (dose: 8.0 mg/kg/injection, schedule: Q01DX004 (im), vehicle: olive oil, sesame oil, peanut oil)?
Its T/C is 98 % of control.

What about the T/C (dose: 8.0 mg/kg/injection, schedule: Q01DX Z (ip), vehicle: methylcellulose (MC)) of the same molecule?
Its T/C is 246 % of control.

What about the T/C (dose: 8.0 mg/kg/injection, schedule: Q01DX Z (ip), vehicle: saline) of the same molecule?
The T/C was 204 % of control.

And the T/C (dose: 10.0 mg/kg/injection, schedule: Q## X000 (iv), vehicle: other)?
The T/C was 120 % of control.

And the T/C (dose: 12.0 mg/kg/injection, schedule: Q01DX004 (im), vehicle: olive oil, sesame oil, peanut oil)?
Its T/C is 101 % of control.

What about the T/C (dose: 12.0 mg/kg/injection, schedule: Q01DX Z (ip), vehicle: methylcellulose (MC)) of the same molecule?
Its T/C is 204 % of control.

What about the T/C (dose: 12.0 mg/kg/injection, schedule: Q03DX Z (ip), vehicle: saline) of the same molecule?
Its T/C is 123 % of control.

And the T/C (dose: 16.0 mg/kg/injection, schedule: Q01DX009 (ip), vehicle: saline)?
Its T/C is 188 % of control and 198 % of control.

And the T/C (dose: 18.0 mg/kg/injection, schedule: Q01DX004 (im), vehicle: olive oil, sesame oil, peanut oil)?
Its T/C is 104 % of control.

And the T/C (dose: 24.0 mg/kg/injection, schedule: Q03DX Z (ip), vehicle: saline)?
The T/C was 188 % of control.

What about the T/C (dose: 28.0 mg/kg/injection, schedule: Q07DX Z (ip), vehicle: saline) of the same molecule?
Its T/C is 113 % of control.

And the T/C (dose: 32.0 mg/kg/injection, schedule: Q01DX009 (ip), vehicle: saline)?
Its T/C is 100 % of control and 103 % of control.

And the T/C (dose: 32.0 mg/kg/injection, schedule: Q01DX Z (ip), vehicle: saline)?
The T/C was 86 % of control.

And the T/C (dose: 48.0 mg/kg/injection, schedule: Q03DX Z (ip), vehicle: saline)?
Its T/C is 172 % of control.

What about the T/C (dose: 64.0 mg/kg/injection, schedule: Q01DX Z (sc), vehicle: steriod suspending solution) of the same molecule?
The T/C was 159 % of control.

And the T/C (dose: 96.0 mg/kg/injection, schedule: Q03DX Z (ip), vehicle: saline)?
Its T/C is 100 % of control.

What about the T/C (dose: 125.0 mg/kg/injection, schedule: Q01DX Z (sc), vehicle: steriod suspending solution) of the same molecule?
Its T/C is 122 % of control.

And the T/C (dose: 240.0 mg/kg/injection, schedule: Q01DX Z (oral), vehicle: saline)?
The T/C was 101 % of control.

Which results are given for `CC(CO)CCCC(C)C1C(O)CC2C3CCC4CC(O)CCC4(C)C3CCC21C` (stereo not drawn)?
T/C [10]: 88 % of control; T/C [11]: 88 % of control; T/C [12]: 91 % of control

Which results are given for `Nc1c(Cl)ncnc1NC1COC(CO)C1O` (stereo not drawn)?
T/C [10]: 100 % of control; T/C [11]: 110 % of control; T/C [12]: 100 % of control

`Cc1ccc(S(=O)(=O)OC2CCCC2OS(=O)(=O)c2ccc(C)cc2)cc1` (stereo not drawn) was tested. Which T/C (dose: 100.0 mg/kg/injection, schedule: Q01DX001 (ip), vehicle: other) did it give?
Its T/C is 96 % of control.

And the T/C (dose: 200.0 mg/kg/injection, schedule: Q01DX001 (ip), vehicle: other)?
The T/C was 95 % of control.

And the T/C (dose: 400.0 mg/kg/injection, schedule: Q01DX001 (ip), vehicle: other)?
The T/C was 91 % of control.

Which T/C [4] does the source give for `CC(=O)OC1CCCCC1C` (stereo not drawn) here?
The T/C was 102 % of control.

And the T/C [5]?
The T/C was 94 % of control.

And the T/C [6]?
The T/C was 91 % of control.

`S=P(/C=C/c1ccccc1)(c1ccccc1)c1ccccc1` was tested. Which T/C (dose: 100.0 mg/kg/injection, schedule: Q01DX009 (ip), vehicle: Klucel (hydroxypropylcellulose) (HPC)) did it give?
Its T/C is 97 % of control.

What about the T/C [1] of the same molecule?
Its T/C is 95 % of control.

What about the T/C (dose: 200.0 mg/kg/injection, schedule: Q01DX009 (ip), vehicle: Klucel (hydroxypropylcellulose) (HPC)) of the same molecule?
Its T/C is 92 % of control.

What about the T/C [2] of the same molecule?
The T/C was 92 % of control.

And the T/C [3]?
Its T/C is 92 % of control.

For `COc1cccc(C(C)(C)CO)c1`, which T/C [13] is on record?
Its T/C is 93 % of control.

And the T/C (dose: 100.0 mg/kg/injection, schedule: Q01DX009 (ip), vehicle: saline with Tween-80)?
Its T/C is 89 % of control.

And the T/C (dose: 200.0 mg/kg/injection, schedule: Q01DX009 (ip), vehicle: saline with Tween-80)?
The T/C was 89 % of control.

Which T/C [1] does the source give for `O=S(=O)(/C=C\c1ccccc1)N(c1ccccc1)c1ccccc1` here?
The T/C was 102 % of control.

And the T/C [2]?
The T/C was 110 % of control.

What about the T/C [3] of the same molecule?
The T/C was 96 % of control.

Which results are given for `O=[N+]([O-])c1ccc(N=Cc2ccccc2O)cc1.O=[N+]([O-])c1ccc(N=Cc2ccccc2O)cc1.[Cu]`?
T/C (dose: 12.5 mg/kg/injection, schedule: Q01DX009 (ip), vehicle: saline with Tween-80): 100 % of control; T/C (dose: 25.0 mg/kg/injection, schedule: Q01DX009 (ip), vehicle: saline with Tween-80): 94 % of control; T/C [13]: 93 % of control

Source: PubChem BioAssay AID248 (DTP/NCI, 2004)
